Paper PMC2662379 (Biochemistry, 2008)

Tests used:
[1] = target: alkaline phosphatase (AP) (Escherichia coli, UniProt P00634, R188S); experiment: steady-state hydrolysis kinetics; assay type: biochemical
[2] = target: NPP (Xanthomonas axonopodis nucleotide phosphodiesterase/pyrophosphatase) (Xanthomonas citri, UniProt A0A0U5FM15); experiment: inhibition of MepNPP hydrolysis, absorbance of 4-nitrophenolate at […] nm; assay type: biochemical

alkaline phosphatase (AP), sequence (P00634 23-471 R188S): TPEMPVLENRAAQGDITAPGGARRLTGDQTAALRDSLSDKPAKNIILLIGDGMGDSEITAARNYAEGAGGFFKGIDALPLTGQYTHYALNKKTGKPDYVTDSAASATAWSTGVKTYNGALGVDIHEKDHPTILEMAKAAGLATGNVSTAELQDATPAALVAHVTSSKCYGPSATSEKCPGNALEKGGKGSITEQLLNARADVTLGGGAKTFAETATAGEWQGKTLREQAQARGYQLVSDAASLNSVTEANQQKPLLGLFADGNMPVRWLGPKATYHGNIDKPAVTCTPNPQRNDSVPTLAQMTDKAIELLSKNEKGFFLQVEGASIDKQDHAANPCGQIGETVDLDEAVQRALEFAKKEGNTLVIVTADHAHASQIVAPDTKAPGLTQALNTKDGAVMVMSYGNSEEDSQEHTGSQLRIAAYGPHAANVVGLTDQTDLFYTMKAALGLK

| SMILES | kcat/KM [1] [M⁻¹ s⁻¹] | Ki [2] [µM] |
| --- | --- | --- |
| COP(O)(=S)Oc1ccc([N+](=O)[O-])cc1 (racemic) [MepNPPS, methyl p-nitrophenyl phosphorothioate] | 0.0011 |  |
| Nc1ncnc2c1ncn2[C@@H]1O[C@H](COP(=O)(O)O)[C@@H](O)[C@H]1O [AMP, adenosine monophosphate] |  | 318 ± 24 |
